Assay: Reversal of a formed copper phosphite precipitate by an added agent (Example 1)
Format: physicochemical
Settings: precipitate from 0.6 g/l Cu(OH)2, 14.4 g/l KH2PO3, 1 g/l K2CO3, pH 5.5; chelators 10 mM, sodium lignosulfonate 6 g/l (48 hours of stirring)
From the text: Copper phosphite precipitate was formed by combining 0.6 g/l of Cu(OH)2 and 14.4 g/l of KH2PO3 in the presence of 1 g/l of K2CO3 to ensure pH 5.5 in demineralised water.

O=C([O-])CN(CCN(CC(=O)[O-])CC(=O)O)CC(=O)O.[Na+].[Na+] [disodium EDTA]
Effect of afterwards addition on copper phosphite precipitate: immediately disappeared
